From patent US20240011976A1, “ADDITIVES FOR REDUCING NON-SPECIFIC INTERACTIONS BETWEEN FLUORESCENT POLYMER CONJUGATES AND CELLS IN A BIOLOGICAL SAMPLE” (Beckman Coulter, Inc., priority 2008, published 2024)
Entries after “also recorded” stand apart in the source; their conditions may differ.

Experiments:
monocytes [1] = assay: Monocyte background (non-specific binding) of SN 428 conjugates with EMPIGEN BB, whole blood flow cytometry; assay type: cell-based; conditions: 0.06 to 0.20% Empigen BB vs absence of surfactant, FIG. 11
Protocol: (§1) The efficiency of zwitterionic surfactant EMPIGEN BB® on the reduction of non-specific binding with monocytes was evaluated. Other populations were also studied, namely lymphocytes and granulocytes, to evaluate the non-impact of the detergent on MFI and percentage of cells.
(§2) The experimental conditions were generally as follows: • CD19-SN 428 (lot D19-094, polymer lot RDS-042919 (82.7 kD), 1 dose (0.5 μg/test). • CD22-SN 428 (lot D19-109, polymer lot WX-20190624 (86.4 kD), 1 dose (0.5 μg/test). • CD25-SN 428 (lot D19-107, polymer lot RDS-062419 (72.8 kD), 1 dose (0.5 μg/test). • CD19, CD22 and CD25-BV 421 from Becton Dickinson at 1× commercial dose. • Three doses of EMPIGEN BB®0.06%, 0.12%, and 0.2% prepared in conjugate final formulation. • Added 10 μL sample with 100 μL whole blood. • Tested on 2 donors lysing with VersaLyse (lysing solution, used to lyse red blood cells, Beckman Coulter, Inc.)+Fix, one wash. • Navios flow cytometer acquisition on FL9.
(§3) The required x number of tubes were prepared, wherein “x number of tubes” depends on the performance tested. A calculated volume of conjugated antibody (at required dose) was added to each tube. Whole blood (100 μL) was added in each tube. The tubes were gently vortexed for 15 seconds and incubated for 15 to 20 minutes at room temperature at 18-25° C. and protected from light. […]

positive lymphocytes = assay: Positive lymphocyte signal of SN 428 conjugates with EMPIGEN BB, whole blood flow cytometry; assay type: cell-based; conditions: compared to the condition without EMPIGEN
Protocol: as §1, §2, §3

granulocytes [2] = assay: Non-specific binding of SN 605-CD20 and SN 786-CD103 conjugate lots to granulocytes with and without EMPIGEN BB (MdFI, dot plots); assay type: cell-based; conditions: with vs without surfactant (EMPIGEN BB), FIG. 3 and FIG. 6
Protocol: In order to confirm the effect of EMPIGEN BB®, two lots of SN 605-CD20 conjugates were tested in the presence and absence of EMPIGEN BB®. The mean fluorescence intensity (MFI) was compared to the autofluorescence (negative population median fluorescence intensity (MdFI)) of the monocytes from the unstained sample.
Two lots of SN 786-CD103 conjugates were tested in presence and absence of EMPIGEN BB® and the autofluorescence (negative population MdFI) of the monocyte and granulocyte population is compared against an unstained sample.

monocytes/granulocytes = assay: Blood sample stained with unconjugated polymer dye SN v605 with and without Empigen BB, flow cytometry; assay type: cell-based; conditions: SN v605 without antibody, with EMPIGEN BB, FIG. 2
From the text: A blood sample was stained with unconjugated polymer dye SN v605 (without antibody), with and without Empigen BB®, and analyzed in a flow cytometer. […] In FIG. 2, the fluorescent polymer dye SN v605 without antibody was used to stain a blood sample and analyzed in a flow cytometer. […] While not wishing to be bound by any specific theory, it is thought that the polymer is likely adsorbing on the cell surface of monocytes and granulocytes.

whole blood cells = assay: 7-AAD staining, percentage of dead cells in whole blood; assay type: cell-based; conditions: up to 0.2% EMPIGEN BB with CD19-SNv428, 7-AAD
Protocol: The percentage of dead cells in whole blood sample with the 7-AAD was evaluated. 7-AAD is a DNA marker, the staining is positive when the cellular membrane is permeabilized. CD19-SNv428 D19-094 without EMPIGEN BB®@(negative control) and with 0.06%, 0.12%, and 0.2% EMPIGEN BB®, was tested on four donors' whole blood, with the 7-ADD, to evaluate the percentage of dead cells in each condition. The goal of the experiment was to verify if the percentage of dead cells is not increased by the EMPIGEN BB® concentration.
Two whole blood samples that had been preserved for greater than 24 hours were added as positive control of 7-AAD staining.
Protocol for 7-AAD staining: • 100 μl whole blood+10 μl CD19-SNv428+/−Empigen, incubation 20 minutes. • Lyse with Versalyse, one wash, • Resuspension in 500 μl PBS 1× • Add 20 μl of 7-AAD (Ref B88526), incubation 15-20 minutes • Navios flow cytometer acquisition: FL4 for 7-AAD and FL9 for CD19-SNv428

[3] = Empigen BB concentration in conjugate formulation and during staining versus CMC; assay type: physicochemical
Protocol: The micellar concentration was studied in samples and during the staining to be sure not to exceed critical micellar concentration (CMC). […] CMC was studied in the conjugate formulation and during the staining in 100 μL whole blood. Experiments were conducted to evaluate the impact of addition of EMPIGEN BB® on whole blood cell integrity and also on peripheral blood mononuclear cells (PMBCs).

monocytes [4] = assay: Anionic surfactant NLS, non-specific staining of CD20-SN v605 on monocytes, peripheral blood flow cytometry; assay type: cell-based; conditions: CD20-SN v605, buffer with BSA, sodium azide and Empigen BB, FIG. 17B
Protocol: (§4) In this example, different concentrations (0.16%, 0.08%, 0.04% and 0.02% w/v) of NLS was formulated with SN v605 CD20 conjugate in the presence of BSA and sodium azide and stained peripheral blood samples. Flow cytometry was performed following sample staining.

granulocytes [5] = assay: Anionic surfactant NLS, non-specific staining of CD20-SN v605 on granulocytes, peripheral blood flow cytometry; assay type: cell-based; conditions: CD20-SN v605, buffer with BSA, sodium azide and NLS, FIG. 17B
Protocol: as §4

[6] = 20-25° C.; cited from earlier work
granulocytes/monocytes = assay: Protein blockers, non-specific interactions of SN v605-CD20 conjugate with granulocytes/monocytes; assay type: cell-based
From the text: The issue of non-specific interaction on monocytes was also observed with conventional tandem dyes (e.g., PC5, PC5.5, PC7, AA700 available from Beckman Coulter, Inc.). To overcome this issue, it was thought that BSA-ox (oxidized BSA) and BSA-Cy5-ox (oxidized Cy5-BSA), which are known protein blockers, might prevent non-specific binding.

Row | Molecule | non-specific monocyte interactions (negative monocyte MFI) (monocytes [1]) | variation of the positive signal on lymphocytes (positive lymphocytes) | percentage of non-specifically bound granulocytes (dot plot gate) (granulocytes [2]) | non-specific binding of polymer dye to monocytes/granulocytes (monocytes/granulocytes) | percentage of dead cells / whole blood cell death (whole blood cells) | concentration relative to CMC, formulation in the vial ([3]; 0.2% in the vial) | Empigen BB concentration, formulation in the vial ([3]; 0.2%, 2 g/L, 279 g/mol) | concentration relative to CMC during the staining ([3]; 100 μL WB, 10 μl conjugate) | Empigen BB concentration during the staining ([3]; 100 μL WB, 10 μl conjugate, dilution factor 11) | % population in the gate Mons Non-specific binding (monocytes [4]) | % population in the gate Grans Non-specific binding (granulocytes [5]) | CMC [6] | percentage of non-specifically bound monocytes and granulocytes / controlling non-specific interactions (granulocytes/monocytes; FIG. 10) | percentage of non-specifically bound monocytes and granulocytes / controlling non-specific interactions (granulocytes/monocytes; FIG. 10, listed as oxidized BSA)
1 | CCCCCCCCCCCC[N+](C)(C)CC(=O)[O-] [EMPIGEN BB®, N,N-dimethyl-N-dodecylglycine betaine] | lower percent of non-specific monocyte interactions | did not induce a significant variation | reduced | substantially reduced; also recorded: reduced drastically; also recorded: substantial decrease | does not induce whole blood cell permeabilization or death; also recorded: didn't induce whole blood cell death; also recorded: not substantially increased | > CMC within the conjugate formulation | 7.2 mM | < CMC during the staining | 0.65 mM | 0.64% | 0.68% | 1.6 to 2.1 mM |  | 
2 | BSA-Cy5-ox: oxidized Cy5-BSA, known protein blocker |  |  |  |  |  |  |  |  |  |  |  |  | inefficient; also recorded: not substantially reduced | 
3 | BSA-ox: oxidized BSA, known protein blocker |  |  |  |  |  |  |  |  |  |  |  |  | inefficient | not substantially reduced
